In PubChem BioAssay AID1963846 (Molecular Pharmacology Branch, DTP, NCI, 2024):
Where “and” joins values, the source holds several entries; their conditions need not be identical. Equal entries are not always repeated.

Test system: 454973-116-R2-J3-PDC complex spheroid viability
Assay: Anticancer human tumor 454973-116-R2-J3-PDC patient-derived pancreatic carcinoma cell line growth inhibition [POLQ]
Conditions: for viability, T/C: stronger effect = lower value; active means viability on the fitted dose curve at most 10% of control; inactive means the rest
Method: Multicellular complex tumor spheroid response to Polymerase (POL) inhibitors (novobiocin, ART-558, RP6685) in combination with a variety of drugs and investigational agents in selected tumor cell lines
The POL inhibitors (novobiocin, ART-558, and RP6685) were evaluated both individually and in combination with standard of care and investigational anticancer small molecules within a complex spheroid model of solid tumors. . Complex spheroids include a stromal component modeled by human endothelial cells (HUVEC) and fibroblasts modeled by human mesenchymal stem cells (MSCs). The concentration ranges selected for each drug and investigational agent were based upon clinically achievable concentrations if the clinical Cmax of the agent was known.
Compounds. The drugs and investigational agents: novobiocin (NSC847541), ART-558 (NSC835418), RP-6685 (NSC848927), peposertib (NSC802822), ceralasertib (NSC780249), elimusertib (NSC800525), camonsertib (NSC841442), AZD-1390 (NSC803789), olaparib (NSC753686), talazoparib (NSC767125), rucaparib (NSC756644), sotorasib (NSC818433), MRTX-1133 (NSC836407), SN-38 (NSC673596), topotecan (NSC609699), epotoside (NSC141540), doxorubicin (NSC123127), gemcitabine (NSC613327), 5-fluorouracil (NSC19893), paclitaxel (NSC125973), vemurafenib (NSC761431), MSA-2 (NSC828583), SN-011 (NSC837082), adavosertib (NSC754352), prexasertib (NSC758257), carboplatin (NSC241240) and oxaliplatin (NSC266046), were obtained from the National Cancer Institute (NCI) Developmental Therapeutics Program Chemical Repository (21). The FDA-approved anticancer drug set is available from the Developmental Therapeutics Program at https://dtp.cancer.gov/organization/dscb/obtaining/. […] The stock solutions were prepared in dimethyl sulfoxide (DMSO, Sigma-Aldrich, St. Louis, MO, cat. D2650), except for the platinum compounds which were prepared in saline (Quality Biological, Gaithersburg, MD, cat. 114-055-101), at 800-fold the tested concentration and stored at -70 degrees C prior to their use. All drugs and investigational agents were tested over a range starting from a high concentration at or near the clinical Cmax and decreasing in half-log increments. If the clinical Cmax for an agent had not been determined, the highest concentration tested was 10 microM, except for SN-38, which was tested at a high concentration of 1 microM.
Cell Culture. All cells were maintained in an incubator at 37 degrees C and 5% CO2 with 95% humidity. The PDC lines were cultured according to standard operating procedures established by the NCI PDMR (https://pdmr.cancer.gov). Table 3 of the manuscript, lists the cell lines along with the number of the three cell types plated to form the mct-spheroids and media for tumor cell growth. After thawing, all PDC lines, except 997537-175-T-J1-PDC and 415267-285-R-J2-PDC, were cultured in Matrigel-coated flasks prepared with a working solution of 1X Ham's F-12 nutrient mix, without supplementation (Thermo Fisher Scientific, cat. 11765054), 100 U/mL penicillin-streptomycin (Thermo Fisher Scientific, cat. 15140122), and 2.5% Matrigel (Corning Inc., Corning, NY, cat. 354248) for the first three passages. The two PDC lines 997537-175-T-J1-PDC and 415267-285-R-J2-PDC were cultured on uncoated flasks. The 857933-349-R-J2-PDC line was cultured in 6C/Colon 1B media containing advanced DMEM/F-12 (Thermo Fisher Scientific, cat. 12634028), 10 mM HEPES (Thermo Fisher Scientific, cat. 15630080), 1X GlutaMAX supplement (Thermo Fisher Scientific, cat. 35050061), 0.1 mg/mL primocin (InvivoGen, San Diego, CA, cat. ant-pm-2), 10% defined fetal bovine serum, heat inactivated (HyClone Laboratories Inc., Logan, UT, cat. SH30070.03HI), 50% L-WRN conditioned media (ATCC, cat. CRL-3276), 1.25 mM N-Acetyl-L-cysteine (Sigma-Aldrich, cat. A9165), 10 mM nicotinamide (Sigma-Aldrich, cat. N0636), 1X B-27 supplement (Thermo Fisher Scientific, cat. 17504044), 1X N-2 supplement (Thermo Fisher Scientific, cat. […]
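Further: spheroids exposed to drugs for seven days before measurement.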
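Wherever viability, T/C is given: percent viability relative to DMSO vehicle control wells taken as 100%.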

CC(C)n1c(=O)n(C)c2cnc3cc(F)c(-c4ccc(OCCCN5CCCCC5)nc4)cc3c21 + Cc1cccc(N(C)C(=O)C2C(O)CCN2c2nc(C)cc(C(F)(F)F)c2C#N)c1
inactive: viability, T/C (second compound 0.0316 µM, first compound 0.0316 µM) 97.4% | viability, T/C (second compound 0.0316 µM, first compound 0.1 µM) 96.4% | viability, T/C (second compound 0.0316 µM, first compound 0.316 µM) 103% | viability, T/C (second compound 0.0316 µM, first compound 1 µM) 99.7% | viability, T/C (second compound 0.0316 µM, first compound 3.16 µM) 105% | viability, T/C (second compound 0.0316 µM, first compound 10 µM) 77.2% | viability, T/C (second compound 0.1 µM, first compound 0.0316 µM) 97.3% | viability, T/C (second compound 0.1 µM, first compound 0.1 µM) 105% | viability, T/C (second compound 0.1 µM, first compound 0.316 µM) 101% | viability, T/C (second compound 0.1 µM, first compound 1 µM) 113% | viability, T/C (second compound 0.1 µM, first compound 3.16 µM) 107% | viability, T/C (second compound 0.1 µM, first compound 10 µM) 85% | viability, T/C (second compound 0.316 µM, first compound 0.0316 µM) 105% | viability, T/C (second compound 0.316 µM, first compound 0.1 µM) 110% | viability, T/C (second compound 0.316 µM, first compound 0.316 µM) 114% | viability, T/C (second compound 0.316 µM, first compound 1 µM) 104% | viability, T/C (second compound 0.316 µM, first compound 3.16 µM) 97.1% | viability, T/C (second compound 0.316 µM, first compound 10 µM) 86.8% | viability, T/C (second compound 1 µM, first compound 0.0316 µM) 103% | viability, T/C (second compound 1 µM, first compound 0.1 µM) 105% | viability, T/C (second compound 1 µM, first compound 0.316 µM) 110% | viability, T/C (second compound 1 µM, first compound 1 µM) 116% | viability, T/C (second compound 1 µM, first compound 3.16 µM) 104% | viability, T/C (second compound 1 µM, first compound 10 µM) 87.3% | viability, T/C (second compound 3.16 µM, first compound 0.0316 µM) 109% | viability, T/C (second compound 3.16 µM, first compound 0.1 µM) 106% | viability, T/C (second compound 3.16 µM, first compound 0.316 µM) 108% | viability, T/C (second compound 3.16 µM, first compound 1 µM) 99.3% | viability, T/C (second compound 3.16 µM, first compound 3.16 µM) 101% | viability, T/C (second compound 3.16 µM, first compound 10 µM) 86% | viability, T/C (second compound 10 µM, first compound 0.0316 µM) 114% | viability, T/C (second compound 10 µM, first compound 0.1 µM) 110% | viability, T/C (second compound 10 µM, first compound 0.316 µM) 96.6% | viability, T/C (second compound 10 µM, first compound 1 µM) 98.6% | viability, T/C (second compound 10 µM, first compound 3.16 µM) 97.3% | viability, T/C (second compound 10 µM, first compound 10 µM) 79%
> 10 µM: IC50 (curve of first compound, second compound 0.0316 µM) | IC50 (curve of first compound, second compound 0.1 µM) | IC50 (curve of first compound, second compound 0.316 µM) | IC50 (curve of first compound, second compound 1 µM) | IC50 (curve of first compound, second compound 3.16 µM) | IC50 (curve of first compound, second compound 10 µM)

CNCc1ccc(-c2[nH]c3cc(F)cc4c3c2CCNC4=O)cc1
inactive: viability, T/C (compound 0.0316 µM) 103% and 105% and 99% | viability, T/C (compound 0.1 µM) 91.9% and 102% and 93% | viability, T/C (compound 0.316 µM) 97% and 98.4% and 112% | viability, T/C (compound 1 µM) 100% and 106% and 97.7% | viability, T/C (compound 3.16 µM) 111% and 101% and 102% | viability, T/C (compound 10 µM) 81.6% and 96.5% and 83.7%
> 10 µM: IC50 (curve of compound)

COc1ccc([C@@H](O)c2cc(-c3ncnc4cc(N5CCOCC5)ccc34)c(F)cc2Cl)nn1
> 10 µM: IC50 (curve of compound)
inactive: viability, T/C (compound 0.0316 µM) 110% and 102% and 101% | viability, T/C (compound 0.1 µM) 102% and 96.8% and 98.7% | viability, T/C (compound 0.316 µM) 104% and 102% and 94.2% | viability, T/C (compound 1 µM) 92.9% and 83.8% and 93% | viability, T/C (compound 3.16 µM) 76% and 75.2% and 80.2% | viability, T/C (compound 10 µM) 52.7% and 56.2% and 53.7%

COc1cc(C2c3cc4c(cc3C(OC3OC5COC(C)OC5C(O)C3O)C3COC(=O)C23)OCO4)cc(OC)c1O (configuration not stated)
inactive: viability, T/C (compound 0.0316 µM) 102% and 100% and 103% | viability, T/C (compound 0.1 µM) 94.6% and 100% and 97.6% | viability, T/C (compound 0.316 µM) 87.3% and 85.4% and 94.8% | viability, T/C (compound 1 µM) 64.4% and 47.4% and 68.4% | viability, T/C (compound 3.16 µM) 27% and 15.3% and 23.4%
11% and 6.79% and 10.2%: viability, T/C (compound 10 µM)
1.53 µM and 0.921 µM and 1.6 µM: IC50 (curve of compound)

O=C(Nc1ccc(O)c(NS(=O)(=O)c2ccc(F)cc2)c1)c1ccc(-c2ccccc2)cc1
inactive: viability, T/C (compound 0.0316 µM) 103% and 108% and 98.8% | viability, T/C (compound 0.1 µM) 104% and 96.5% and 103% | viability, T/C (compound 0.316 µM) 100% and 110% and 106% | viability, T/C (compound 1 µM) 94% and 101% and 106% | viability, T/C (compound 3.16 µM) 96.4% and 116% and 115% | viability, T/C (compound 10 µM) 87.7% and 89.7% and 98%
> 10 µM: IC50 (curve of compound)

CCc1c2c(nc3ccc(O)cc13)-c1cc3c(c(=O)n1C2)COC(=O)[C@]3(O)CC
< 0.00316 µM: IC50 (curve of compound)
active: viability, T/C (compound 0.0316 µM) 13% (2×) and 7.69% | viability, T/C (compound 0.1 µM) 5.61% and 3.22% and 6.06% | viability, T/C (compound 0.316 µM) 2.43% and 3.16% and 3.18% | viability, T/C (compound 1 µM) 1.57% and 1.32% and 2.53%
inactive: viability, T/C (compound 0.00316 µM) 34.1% and 23.5% and 36.2% | viability, T/C (compound 0.01 µM) 12.7% and 10.6% and 14.8%
